Assay results: patent US20140243302A1, “BRIDGED BICYCLIC COMPOUNDS FOR THE TREATMENT OF BACTERIAL INFECTIONS” (priority 2011, published 2014)
Values after ≈ are worked out from the molar mass of the structure shown.

test system: Staphylococcus aureus Smith; experiment: MIC assay, modified agar dilution (CLSI), S. aureus Smith; type: cell-based; settings: Staphylococcus aureus, agar dilution, 35° C., 16-20 hr; lowest concentration that completely inhibited growth; read-out: S_aureus_Smith_WT_MIC
Description: The potency of antibacterial agents was measured using the Minimal Inhibitory Concentration (MIC) assay. The assay measures the ability of test agents to inhibit the growth of bacteria on agar-containing medium.
The bacterial test strains used were exemplified by Staphylococcus aureus Smith, Enterococcus faecium A2373, Streptococcus pneumoniae IID554, and Escherichia coli ATCC 25922. All strains were maintained as frozen stocks held at −80° C. in skim milk. Other bacterial test strains are well known to those skilled in the art and can be used for testing.
Mueller Hinton Agar (MHA BBL; Becton Dickinson and Company, Sparks, Md.) was used as the medium. MHA was supplemented with 5% defibrinated horse blood (DHB; Nippon Biotest Laboratories inc.) to support the growth of S. pneumoniae and E. faecium.
MIC values were determined using a modified agar dilution procedure described by the Clinical and Laboratory Standards Institute (CLSI; Methods for Dilution Antimicrobial Susceptibility Tests for Bacteria That Grow Aerobically; Approved Standard—Eighth Edition. CLSI document M07-A8 [ISBN 1-56238-689-1]. Clinical and Laboratory Standards Institute, 940 West Valley Road, Suite 1400, Wayne, Pa. 19087-1898 USA, 2009).
Stock solutions (6.4 mgmL) of test compounds were prepared in 100% ultrapure dimethyl sulfoxide (DMSO; source) on the day of the assay. Subsequent serial dilutions were performed to generate solutions with concentrations ranging from 6.4 to 0.0002 mgmL in 100% DMSO.
Agar medium containing test compound was prepared by adding the dilutions of antimicrobial solution to molten MHA at a temperature of 45-50° C. The agar and antimicrobial solution were mixed thoroughly, poured into petri dishes, and allowed to solidify at room temperature. The final concentration of test compounds in the MHA medium ranged from 128 to 0.001 μg/mL with two-fold dilutions. MHA plates lacking antibacterial compound were used for growth controls.
Prior to susceptibility testing, the bacterial isolates were removed from frozen storage, thawed at room temperature, sub-cultured to MHA medium and incubated overnight at 35° C. S. pneumoniae and E. faecium were subcultured on MHA supplemented with 5% DHB at 35° C. with […]. Colonies from each plate were suspended in normal saline. This suspension was adjusted to the turbidity of a 0.5 McFarland standard, 1-2×10^8 colony forming units (CFU) per mL, and diluted 100-fold to 1-2×10^6 CFUmL.
Suspensions of bacterial cultures were applied to the surface of MHA plates containing test compound as well as to a growth control plate lacking test compound using an inoculum-replicating device with 4 mm pins. The replicating device applied 5 uL of the bacterial suspension such that each spot contained approx. 1×10^4 CFU. Plates were dried for about 40 min and incubated at 35° C. for 16-20 hr prior to scoring.

Compound	MIC
COc1ccc2ncc(Cl)c(CCC34CCC(NCc5ccc6c(n5)NC(=O)CO6)(CC3)CC4)c2n1.Cl [Example 5, 6-((4-(2-(3-Chloro-6-methoxy-1,5-naphthyridin-4-yl)ethyl)bicyclo[2.2.2]octan-1-ylamino)methyl)-2H-pyrido[3,2-b][1,4]oxazin-3(4H)-one Hydrochloride]	0.031 µg/mL
COc1ccc2ncc(Cl)c(C#CC34CCC(NCc5ccc6c(n5)NC(=O)CO6)(CC3)CC4)c2n1.Cl [Example 6, 6-((4-((3-Chloro-6-methoxy-1,5-naphthyridin-4-yl)ethynyl)bicyclo[2.2.2]octan-1-ylamino)methyl)-2H-pyrido[3,2-b][1,4]oxazin-3(4H)-one Hydrochloride]	0.031 µg/mL
O=C1COc2ccc(CNC34CCC(/C=C\c5c(Cl)cnc6ccc(O)nc56)(CC3)CC4)nc2N1 [Example 7, (Z)-6-((4-(2-(3-Chloro-6-hydroxy-1,5-naphthyridin-4-yl)vinyl)bicyclo[2.2.2]octan-1-ylamino)methyl)-2H-pyrido[3,2-b][1,4]oxazin-3(4H)-one]	0.5 µg/mL (≈ 1.02 µM)
COc1ccc2ncc(Cl)c(/C=C\C34CCC(NCc5ccc6c(n5)NC(=O)CO6)(CC3)CC4)c2n1 [Example 8, (Z)-6-((4-(2-(3-Chloro-6-methoxy-1,5-naphthyridin-4-yl)vinyl)bicyclo[2.2.2]octan-1-ylamino)methyl)-2H-pyrido[3,2-b][1,4]oxazin-3(4H)-one]	0.5 µg/mL (≈ 0.988 µM)
O=C1COc2ccc(CNC34CCC(CCc5c(Cl)cnc6ccc(O)nc56)(CC3)CC4)nc2N1 [Example 9, 6-((4-(2-(3-Chloro-6-hydroxy-1,5-naphthyridin-4-yl)ethyl)bicyclo[2.2.2]octan-1-ylamino)methyl)-2H-pyrido[3,2-b][1,4]oxazin-3(4H)-one]	0.125 µg/mL (≈ 0.253 µM)
COc1ccc2ncc(Cl)c(/C=C/C34CCC(NCc5ccc6c(n5)NC(=O)CO6)(CC3)CC4)c2n1.Cl [Example 10, (E)-6-((4-(2-(3-Chloro-6-methoxy-1,5-naphthyridin-4-yl)vinyl)bicyclo[2.2.2]octan-1-ylamino)methyl)-2H-pyrido[3,2-b][1,4]oxazin-3(4H)-one Hydrochloride]	0.016 µg/mL
Cc1cccc2sc(C(=O)C34CCC(NCc5ccc6c(n5)NC(=O)CO6)(CC3)CC4)nc12 [Example 11, 6-((4-(4-Methylbenzo[d]thiazole-2-carbonyl)bicyclo[2.2.2]octan-1-ylamino)methyl)-2H-pyrido[3,2-b][1,4]oxazin-3(4H)-one]	2 µg/mL (≈ 4.32 µM)
COc1ccc2ncc(F)c(CCC34CCC(NCc5ccc6c(n5)NC(=O)CO6)(CC3)C4)c2n1 [Example 12, 6-((4-(2-(3-Fluoro-6-methoxy-1,5-naphthyridin-4-yl)ethyl)bicyclo[2.2.1]heptan-1-ylamino)methyl)-2H-pyrido[3,2-b][1,4]oxazin-3(4H)-one]	0.25 µg/mL (≈ 0.524 µM)
COc1ccc2ncc(Cl)c(OCC34CCC(NCc5ccc6c(n5)NC(=O)CO6)(CC3)CC4)c2n1 [Example 15, 6-((4-((3-Chloro-6-methoxy-1,5-naphthyridin-4-yloxy)methyl)bicyclo[2.2.2]octan-1-ylamino)methyl)-2H-pyrido[3,2-b][1,4]oxazin-3(4H)-one]	0.031 µg/mL (≈ 0.0608 µM)
COc1ccc2ncc(Cl)c(CCC34CCC(NCc5ccc6c(n5)NC(=O)CO6)(CC3)CO4)c2n1.Cl [Example 16, 6-((1-(2-(3-Chloro-6-methoxy-1,5-naphthyridin-4-yl)ethyl)-2-oxabicyclo[2.2.2]octan-4-ylamino)methyl)-2H-pyrido[3,2-b][1,4]oxazin-3(4H)-one Hydrochloride]	0.016 µg/mL

Results, then the compound that gave them:

MIC	Compound
0.031 µg/mL	COc1ccc2nccc(CCC34CCC(NCc5ccc6c(n5)NC(=O)CO6)(CC3)CO4)c2n1.Cl [Example 17, 6-((1-(2-(6-Methoxy-1,5-naphthyridin-4-yl)ethyl)-2-oxabicyclo[2.2.2]octan-4-ylamino)methyl)-2H-pyrido[3,2-b][1,4]oxazin-3(4H)-one Hydrochloride]
0.008 µg/mL (≈ 0.0163 µM)	COc1ccc2ncc(F)c(/C=C/C34CCC(NCc5ccc6c(n5)NC(=O)CO6)(CC3)CO4)c2n1 [Example 19, (E)-6-((1-(2-(3-Fluoro-6-methoxy-1,5-naphthyridin-4-yl)vinyl)-2-oxabicyclo[2.2.2]octan-4-ylamino)methyl)-2H-pyrido[3,2-b][1,4]oxazin-3(4H)-one]
0.25 µg/mL	COc1ccc2ncc(F)c(CC(OC)C34CCC(NCc5ccc6c(n5)NC(=O)CO6)(CC3)CO4)c2n1.Cl (centres unmarked) [Example 22, 6-((1-(2-(3-Fluoro-6-methoxy-1,5-naphthyridin-4-yl)-1-methoxyethyl)-2-oxabicyclo[2.2.2]octan-4-ylamino)methyl)-2H-pyrido[3,2-b][1,4]oxazin-3(4H)-one Hydrochloride]
0.125 µg/mL (≈ 0.246 µM)	COc1ccc2ncc(F)c(CC(=O)C34CCC(NCc5ccc6c(n5)NC(=O)CO6)(CC3)CO4)c2n1 [Example 23, 6-((1-(2-(3-Fluoro-6-methoxy-1,5-naphthyridin-4-yl)acetyl)-2-oxabicyclo[2.2.2]octan-4-ylamino)methyl)-2H-pyrido[3,2-b][1,4]oxazin-3(4H)-one]
4 µg/mL (≈ 7.94 µM)	COc1ccc2ncc(F)c(CCC34CCC(NCc5nc6ccccc6n(C)c5=O)(CC3)CO4)c2n1 [Example 24, 3-((1-(2-(3-Fluoro-6-methoxy-1,5-naphthyridin-4-yl)ethyl)-2-oxabicyclo[2.2.2]octan-4-ylamino)methyl)-1-methylquinoxalin-2(1H)-one]
0.5 µg/mL (≈ 0.911 µM)	O=C1COc2ccc(CNC34CCC(CCc5c(F)cnc6ccc(N7CCOCC7)nc56)(CC3)OC4)nc2N1 [Example 28, 6-((1-(2-(3-Fluoro-6-morpholino-1,5-naphthyridin-4-yl)ethyl)-2-oxabicyclo[2.2.2]octan-4-ylamino)methyl)-2H-pyrido[3,2-b][1,4]oxazin-3(4H)-one]
0.25 µg/mL (≈ 0.494 µM)	CN(C)c1ccc2ncc(F)c(CCC34CCC(NCc5ccc6c(n5)NC(=O)CO6)(CC3)CO4)c2n1 [Example 29, 6-((1-(2-(6-(Dimethylamino)-3-fluoro-1,5-naphthyridin-4-yl)ethyl)-2-oxabicyclo[2.2.2]octan-4-ylamino)methyl)-2H-pyrido[3,2-b][1,4]oxazin-3(4H)-one]
2 µg/mL (≈ 4.18 µM)	Nc1ccc2ncc(F)c(CCC34CCC(NCc5ccc6c(n5)NC(=O)CO6)(CC3)CO4)c2n1 [Example 30, 6-((1-(2-(6-Amino-3-fluoro-1,5-naphthyridin-4-yl)ethyl)-2-oxabicyclo[2.2.2]octan-4-ylamino)methyl)-2H-pyrido[3,2-b][1,4]oxazin-3(4H)-one]
0.063 µg/mL (≈ 0.129 µM)	N#Cc1ccc2ncc(F)c(CCC34CCC(NCc5ccc6c(n5)NC(=O)CO6)(CC3)CO4)c2n1 [Example 31, 7-Fluoro-8-(2-(4-((3-oxo-3,4-dihydro-2H-pyrido[3,2-b][1,4]oxazin-6-yl)methylamino)-2-oxabicyclo[2.2.2]octan-1-yl)ethyl)-1,5-naphthyridine-2-carbonitrile]
0.25 µg/mL (≈ 0.442 µM)	CCOC(=O)COc1ccc2ncc(F)c(CCC34CCC(NCc5ccc6c(n5)NC(=O)CO6)(CC3)CO4)c2n1 [Example 32, Ethyl 2-(7-Fluoro-8-(2-(4-((3-oxo-3,4-dihydro-2H-pyrido[3,2-b][1,4]oxazin-6-yl)methylamino)-2-oxabicyclo[2.2.2]octan-1-yl)ethyl)-1,5-naphthyridin-2-yloxy)acetate]
